Data published in article PMC9203742 (Nature Communications, 2022).
Where “and” joins values, the source holds several entries; their conditions need not be identical. Equal values may be shown once.

Assays:
[1] = system: mGlu1 construct not given; test: Fura-2 Ca2+ imaging in HEK293 cells, source data Suppl Fig1, right group (c18-c26); construct not given; assay type: cell-based, rat; details: single-cell values, cells #15-#20; right group of third block
Source text: (§1) Supplement 41467_2022_30828_MOESM6_ESM.zip/Ojima et al_source data_Suppl Fig.xlsx, sheet "Suppl Fig1" | column: Glu; NiCl2; CuCl2; ZnCl2; CdCl2; Na2PdCl2; Pd(bpy)

[2] = system: mGlu1 construct not given; test: Fura-2 Ca2+ imaging in HEK293 cells, source data Suppl Fig1, left group (c0-c8); construct not given; assay type: cell-based, rat; details: single-cell values, cells #15-#20; left group of third block
Source text: as §1

mGlu1 A59H/G266H mutant [3] = target: T1, mGlu1 A59H/G266H mutant (Rattus norvegicus, UniProt P23385, A59H/G266H); test: Fura-2 Ca2+ imaging in HEK293 cells expressing mGlu1 A59H/G266H; assay type: cell-based; details: single-cell values; as to Ca2+ response (delta ratio), A59H/G266H: test concentration or dose not given here
T1 construct: expressed in transfected cells; host or cells: HEK293

[4] = system: HEK293 cells, vector control; test: Fura-2 Ca2+ imaging in HEK293 cells transfected with control vector (Vec); assay type: cell-based; details: single-cell values #1-#20; as to Ca2+ response of individual cells (source data Suppl Fig1), Vec: test concentration or dose not given here
mGlu1 A59H/A265H mutant [5] = target: T2, mGlu1 A59H/A265H mutant (Rattus norvegicus, UniProt P23385, A265H/A59H); test: Fura-2 Ca2+ imaging in HEK293 cells expressing mGlu1 A59H/A265H; assay type: cell-based; details: Fig.1e
T2 construct: expressed in transfected cells; host or cells: HEK293

mGlu1 P58H/N264H mutant = target: T3, mGlu1 P58H/N264H mutant (Rattus norvegicus, UniProt P23385, N264H/P58H); test: Fura-2 Ca2+ imaging in HEK293 cells expressing mGlu1 P58H/N264H; assay type: cell-based
T3 construct: expressed in transfected cells; host or cells: HEK293

mGlu1 A59H/A265H mutant [6] = target: T2, mGlu1 A59H/A265H mutant; test: Fura-2 Ca2+ imaging in HEK293 cells expressing mGlu1 A59H/A265H; assay type: cell-based; details: single-cell values
WT mGlu1 = target: T4, WT mGlu1 (Rattus norvegicus, UniProt P23385); assay type: cell-based; also: test concentration or dose not given here
T4 construct: expressed in transfected cells; host or cells: HEK293

mGlu1 A59H/N264H mutant = target: T5, mGlu1 A59H/N264H mutant (Rattus norvegicus, UniProt P23385, A59H/N264H); test: Fura-2 Ca2+ imaging in HEK293 cells expressing mGlu1 A59H/N264H; assay type: cell-based
T5 construct: expressed in transfected cells; host or cells: HEK293

[7] = system: HEK293 cells, vector control; test: Fura-2 Ca2+ imaging in HEK293 cells transfected with control vector (Vec); assay type: cell-based; details: Fig.1e; as to Ca2+ response of individual cells (source data Suppl Fig1), Vec: test concentration or dose not given here
Source text: Supplement 41467_2022_30828_MOESM6_ESM.zip/Ojima et al_source data_Main Figure.xlsx, sheet "Fig.1e" | column: Vec

mGlu1 A59H/G266H mutant [8] = target: T1, mGlu1 A59H/G266H mutant; test: Fura-2 Ca2+ imaging in HEK293 cells expressing mGlu1 A59H/G266H; assay type: cell-based; details: Fig.1e
[9] = system: mGlu1 construct not given; test: Fura-2 Ca2+ imaging in HEK293 cells, source data Suppl Fig1, middle group (c9-c17); construct not given; assay type: cell-based, rat; details: single-cell values, cells #15-#20; middle group of third block
Source text: as §1

mGlu1 K61H/N264H mutant = target: T6, mGlu1 K61H/N264H mutant (Rattus norvegicus, UniProt P23385, K61H/N264H); test: Fura-2 Ca2+ imaging in HEK293 cells expressing mGlu1 K61H/N264H; assay type: cell-based
T6 construct: expressed in transfected cells; host or cells: HEK293

mGlu1 E60H/N264H mutant = target: T7, mGlu1 E60H/N264H mutant (Rattus norvegicus, UniProt P23385, E60H/N264H); test: Fura-2 Ca2+ imaging in HEK293 cells expressing mGlu1 E60H/N264H; assay type: cell-based
T7 construct: expressed in transfected cells; host or cells: HEK293

mGlu1 P57H/N264H mutant = target: T8, mGlu1 P57H/N264H mutant (Rattus norvegicus, UniProt P23385, N264H/P57H); test: Fura-2 Ca2+ imaging in HEK293 cells expressing mGlu1 P57H/N264H; assay type: cell-based
T8 construct: expressed in transfected cells; host or cells: HEK293
T8 sequence (P23385 19-1199 P57H/N264H): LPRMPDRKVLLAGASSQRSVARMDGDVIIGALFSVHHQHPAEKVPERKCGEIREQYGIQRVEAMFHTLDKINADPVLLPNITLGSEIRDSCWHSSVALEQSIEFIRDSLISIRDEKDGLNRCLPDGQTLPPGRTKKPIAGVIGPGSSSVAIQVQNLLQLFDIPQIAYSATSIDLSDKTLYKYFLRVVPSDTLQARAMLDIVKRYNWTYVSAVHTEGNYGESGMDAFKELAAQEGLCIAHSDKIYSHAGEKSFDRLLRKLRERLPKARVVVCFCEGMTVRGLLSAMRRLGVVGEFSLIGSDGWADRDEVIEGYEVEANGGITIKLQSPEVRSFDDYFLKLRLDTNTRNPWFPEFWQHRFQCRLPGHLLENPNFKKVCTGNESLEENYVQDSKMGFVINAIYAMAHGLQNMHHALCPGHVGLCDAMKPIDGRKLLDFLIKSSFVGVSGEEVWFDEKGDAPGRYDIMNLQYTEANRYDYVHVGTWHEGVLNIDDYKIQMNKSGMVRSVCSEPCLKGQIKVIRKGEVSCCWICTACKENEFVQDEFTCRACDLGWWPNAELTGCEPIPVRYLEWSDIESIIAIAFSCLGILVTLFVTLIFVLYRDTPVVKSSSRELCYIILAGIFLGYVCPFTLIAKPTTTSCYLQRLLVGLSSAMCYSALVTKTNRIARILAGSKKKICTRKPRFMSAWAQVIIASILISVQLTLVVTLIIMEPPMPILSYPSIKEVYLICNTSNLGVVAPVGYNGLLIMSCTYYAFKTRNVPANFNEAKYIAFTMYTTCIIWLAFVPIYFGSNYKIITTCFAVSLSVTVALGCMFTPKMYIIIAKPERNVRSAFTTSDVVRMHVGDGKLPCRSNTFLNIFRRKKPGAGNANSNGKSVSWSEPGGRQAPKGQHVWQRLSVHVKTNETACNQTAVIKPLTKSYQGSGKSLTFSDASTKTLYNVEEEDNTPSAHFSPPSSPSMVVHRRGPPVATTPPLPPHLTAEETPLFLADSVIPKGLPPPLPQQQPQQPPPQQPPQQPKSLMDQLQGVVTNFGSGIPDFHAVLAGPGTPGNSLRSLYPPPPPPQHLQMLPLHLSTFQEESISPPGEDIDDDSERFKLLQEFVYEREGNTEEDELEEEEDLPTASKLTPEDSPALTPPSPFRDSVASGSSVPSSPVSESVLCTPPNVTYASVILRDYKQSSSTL

T1 sequence (P23385 19-1199 A59H/G266H): as the sequence (P23385 19-1199 P57H/N264H) above, with H39P, A41H, H246N, G248H counted along it
T7 sequence (P23385 19-1199 E60H/N264H): as the sequence (P23385 19-1199 P57H/N264H) above, with H39P, E42H counted along it
T3 sequence (P23385 19-1199 P58H/N264H): as the sequence (P23385 19-1199 P57H/N264H) above, with H39P, P40H counted along it
T6 sequence (P23385 19-1199 K61H/N264H): as the sequence (P23385 19-1199 P57H/N264H) above, with H39P, K43H counted along it
T4 sequence (P23385 19-1199): as the sequence (P23385 19-1199 P57H/N264H) above, with H39P, H246N counted along it
T2 sequence (P23385 19-1199 A59H/A265H): as the sequence (P23385 19-1199 P57H/N264H) above, with H39P, A41H, H246N, A247H counted along it
T5 sequence (P23385 19-1199 A59H/N264H): as the sequence (P23385 19-1199 P57H/N264H) above, with H39P, A41H counted along it

[Cl][Ni][Cl] [NiCl2]
Ca2+ response of individual cells (source data, sheet Suppl Fig1) [1]: 0.03285 and -0.01932 and -0.04406 and 0.003838 and -0.02115 and 0.02962
Ca2+ response of individual cells (source data, sheet Suppl Fig1) [2]: -0.01619 and -0.01292 and 0.01722 and -0.04921 and -0.009638 and -0.02348
Ca2+ response of individual cells (source data Suppl Fig1), A59H/G266H (mGlu1 A59H/G266H mutant [3]): -0.007338 and -0.001015 and -0.03149 and 0.03385 and 0.01174 and 0.008792 and -0.03335 and -0.003362 and 0.01265 and 0.02216 and 0.003731 and -0.008569 and 0.01177 and -0.002115
Ca2+ response of individual cells (source data Suppl Fig1), Vec [4]: -0.01071 and 0.01858 and -0.01644 and -0.01578 and -0.0028 and -0.01812 and -0.01767 and -0.01609 and -0.0009 and -0.0156 and -0.02858 and -0.009415 and -0.001254 and -0.01445 and -0.004377 and -0.001977 and -0.0008692 and 0.006415 and 0.01396 and 0.004169
Ca2+ response (delta ratio), A59H/A265H (mGlu1 A59H/A265H mutant [5]): 0.01054
Ca2+ response (delta ratio), P58H/N264H (mGlu1 P58H/N264H mutant; Fig.1e): 0.05353
Ca2+ response of individual cells (source data Suppl Fig1), P58H/N264H (mGlu1 P58H/N264H mutant; single-cell values #1-#20, P58H/N264H): 0.03009 and 0.04043 and -0.04005 and 0.07079 and 0.04304 and 0.04053 and 0.04913 and 0.06845 and 0.2599 and -0.02289 and 0.03599 and 0.03797 and 0.05281 and 0.1306 and 0.05504 and 0.04257 and 0.06472 and 0.07143 and 0.03615 and 0.003946
Ca2+ response of individual cells (source data Suppl Fig1), A59H/A265H (mGlu1 A59H/A265H mutant [6]): -0.0004462 and -0.005215 and 0.006554 and -0.007815 and 0.01005 and -0.006508 and -0.02278 and 0.001031 and 0.01621 and 0.004377 and -0.02859 and 0.008423 and 0.09357 and 0.07873
Ca2+ response (delta ratio), WT (WT mGlu1; Fig.1e): 0.03319
Ca2+ response of individual cells (source data Suppl Fig1), WT (WT mGlu1; single-cell values #1-#20, WT): -0.005477 and -0.01458 and 0.001892 and -0.01835 and 0.1195 and 0.01671 and 0.05379 and 0.4457 and 0.004608 and -0.002423 and 0.004238 and 0.01116 and 0.1174 and -0.002515 and -0.001223 and -0.001015 and -0.0129 and -0.004708 and 0.01682 and -0.06482
Ca2+ response (delta ratio), A59H/N264H (mGlu1 A59H/N264H mutant; Fig.1e): 0.05683
Ca2+ response of individual cells (source data Suppl Fig1), A59H/N264H (mGlu1 A59H/N264H mutant; single-cell values #1-#20, A59H/N264H): 0.3729 and -0.001931 and -0.001046 and 0.01178 and 0.01916 and -0.01828 and -0.02652 and 0.02399 and 0.0008077 and 0.2216 and -0.004754 and -0.01916 and -0.02225 and 0.2474 and 0.3157 and 0.001138 and -0.0037 and -0.007646 and -0.0005385 and 0.0279
Ca2+ response (delta ratio), Vec [7]: -0.006595
Ca2+ response (delta ratio), A59H/G266H (mGlu1 A59H/G266H mutant [8]): -3.81E-05
Ca2+ response of individual cells (source data, sheet Suppl Fig1) [9]: 0.03642 and 0.005192 and 0.02775 and -0.01323 and -0.002362 and 0.009469
Ca2+ response (delta ratio), K61H/N264H (mGlu1 K61H/N264H mutant; Fig.1e): -0.01365
Ca2+ response of individual cells (source data Suppl Fig1), K61H/N264H (mGlu1 K61H/N264H mutant; single-cell values, K61H/N264H): -0.03782 and -0.01632 and -0.02464 and 0.009846 and -0.01781 and 0.02198 and -0.0009692 and 0.02142 and -0.009608 and -0.02934 and -0.05039 and -0.01796 and -0.007623 and -0.01945
Ca2+ response (delta ratio), E60H/N264H (mGlu1 E60H/N264H mutant; Fig.1e): -0.01792
Ca2+ response of individual cells (source data Suppl Fig1), E60H/N264H (mGlu1 E60H/N264H mutant; single-cell values #1-#20, E60H/N264H): -0.0467 and -0.05411 and -0.02817 and -0.02148 and 0.004623 and 0.0091 and -0.02117 and -0.04309 and -0.01538 and -0.003069 and -0.02522 and -0.003569 and 0.01539 and -0.02995 and -0.01439 and -0.004777 and -0.04676 and -0.0003 and -0.01138
Ca2+ response (delta ratio), P57H/N264H (mGlu1 P57H/N264H mutant; Fig.1e): 0.01834
Ca2+ response of individual cells (source data Suppl Fig1), P57H/N264H (mGlu1 P57H/N264H mutant; single-cell values #1-#20, P57H/N264H): -0.01177 and -0.0082 and 0.005215 and 0.04513 and 0.01995 and 0.003931 and -0.01436 and 0.02328 and -0.02887 and -0.004769 and -0.02686 and -0.008069 and 0.003369 and 0.01493 and -0.02254 and -0.001223 and 0.3415 and -0.007623 and 0.04519 and -0.0014
